Assay results from US20180171411A1, “GFRalpha1 AS A BIOMARKER FOR CISPLATIN-INDUCED CHEMORESISTANCE AND METASTASIS” (THE BOARD OF REGENTS OF THE UNIVERSITY OF TEXAS SYSTEM, priority 2015, published 2018).

What was measured:
[1] = tested on: GFRα1-overexpressing MG-63 clone #4; experiment: Colony-forming assay in the presence of cisplatin; type: cell-based, human; conditions: cisplatin 20 μM 10 days; 3-MA (10 μM), Baf (100 nM), CQ (30 μg/ml)
Excerpt: FIG. 3. […] Scale bar, 20 μm. […] Scale bar, 20 μm. […] Scale bar, 20 μm.

MG-63/GFRα1 tumors = experiment: MG-63/GFRα1 xenograft in BALB/c nude mice; type: in vivo; conditions: CQ 60 mg/kg, cisplatin 3 mg/kg, once a week
Protocol: FIG. 5. GFRα1-mediated autophagy promotes chemoresistance and tumor growth in vivo. (a) BALB/c nude mice (n =40) were injected with MG-63 cells that were transfected with either control or GFRα1 expressing vector. Tumor volume was measured every 3 or 4 days. Data are shown as mean±SEM. ** p<0.05. (b) BALB/c nude mice (n=20) were injected with MG-63 cells that were transfected with either control or GFRα1 shRNA. Tumor volume was measured every 3 or 4 days. Data are shown as mean±SEM. ** p<0.05. (c) Tumors that were generated from mice injected with MG-63 cells containing GFRα1 expressing vector were directly injected with PBS, CQ, cisplatin, or cisplatin+CQ. Tumor volume was measured every 4 days. Data are shown as mean±SEM. ** p<0.05 vs PBS, CQ, or cisplatin-treated tumors. (d) Left, representative images of immunofluorescence staining of HMGB1 in a section from tumors generated from mice injected with MG-63 cells containing GFRα1 expressing vector and then treated with PBS, CQ, cisplatin, or cisplatin+CQ. Right, quantitative analysis of percentage of cytoplasmic HMGB1-positive cells in HMGB1-positive tumors. The values are represented as a mean±s.d.m. (n=3). ** denotes p<0.05 by t-test. (e) Left, representative images of TUNEL-positive cells in a section from tumors generated from mice injected with MG-63 cells containing GFRα1 expressing vector and then treated with PBS, CQ, cisplatin, or cisplatin+CQ. Right, quantitative analysis of percentage of TUNEL-positive cells in HMGB1-positive tumors. The values are represented as a mean±s.d.m. (n=3). ** denotes p<0.05 by t-test. (0 Survival rate of mice injected with MG-63 cells containing GFRα1 expressing vector and then treated with either cisplatin or cisplatin+CQ. (g) Representative images of immunohistochemical staining of GFRα1 in a section from human osteosarcoma patient before and after cisplatin treatment. (h) Representative images of immunofluorescence staining of GFRα1 and HMGB1 in a section from human osteosarcoma patient before and after cisplatin treatment.
Tumor formation in nude mice. The mice used in this study were 6-week-old female BALB/c nude mice purchased from Orient Bio Inc. (Seongnam, Korea). […] The tumor size was measured with a caliper every 3 or 4 days. […] The tumor size was measured with a caliper every 4 days. […] were calculated from caliper measurements of tumor dimensions in mm using the formula for a prolate ellipsoid: (L×W^2)/2 where L is the longer of the two-measurements.
Statistical analysis. Survival data was analyzed by the Kaplan-Meier and log-rank test with GraphPad Prism v5.04 (GraphPad Software, La Jolla Calif.). Plating efficiency (PE, %)=(Number of colonies counted/Number of cells plated)×100. […] All values are expressed as the mean±standard deviation (SD). […]

[2] = tested on: GFRα1 mRNA in MG-63 and U-2 OS cells; experiment: Quantitative real-time PCR of GFRα1 mRNA after cisplatin; type: cell-based, human; conditions: both cell lines; dose and time dependent
Protocol: FIG. 1. Cisplatin induces GFRα1 expression in osteosarcoma cells. (a-c) Immunoblot analysis of osteosarcoma cell lysates with antibodies specific for GFRα1 and β-actin. (a) MG-63 and U-2 OS cells were treated with doxorubicin (5 μM), cisplatin (20 μM), or methotrexate (1 mM) for 24 hr. Immunoblot analysis of GFRα1 (left) and quantification of GFRα1 expression (right) after treatment of chemotherapeutic agents. (b) MG-63 and U-2 OS cells were treated with different concentrations of cisplatin for 24 hr. (c) MG-63 and U-2 OS cells were treated with cisplatin (20 μM) and collected at the indicated time. (d and e) Quantitative real-time PCR of GFRα1 mRNA expression after cisplatin treatment. Representative images (top) and quantitative analysis (bottom) of GFRα1 mRNA expression. The values are presented as a mean±s.d.m (n=3). ** denotes p<0.05 by t-test. (d) MG-63 and U-2 OS cells were treated with different concentrations of cisplatin for 24 hr. (e) MG-63 and U-2 OS cells were treated with cisplatin (20 μM) and collected at the indicated time.
Quantitative real-time (RT)-PCR (qPCR). Total RNA was collected and isolated from cell lines using the RNeasy system according to the manufacturer's protocol (Qiagen, Hilden, Germany). cDNA was generated from a 30 μl reaction containing total RNA (3 μg), reverse transcriptase and oligo dT primers (Promega, Madison, Wis.). […]

SMILES	number of colonies [1]	tumor progression (MG-63/GFRα1 tumors)	tumor volume compared to PBS-treated mice (MG-63/GFRα1 tumors)	level of GFRα1 mRNA [2]
Cn1cnc(N)c2ncnc1-2 [3-MA, 3-methyladenine]	effectively reduced	–	–	–
N.N.[Cl][Pt][Cl] [cisplatin, Cis-Diamineplatinum(II) dichloride]	–	allowed the tumors to survive	decreased	increased
